Measurements from publication PMC10454575, “A Novel Aniline Derivative from Peganum harmala L. Promoted Apoptosis via Activating PI3K/AKT/mTOR-Mediated Autophagy in Non-Small Cell Lung Cancer Cells” (International Journal of Molecular Sciences, 2023).

Biological target: T1, CD133 (Homo sapiens, UniProt O43490)
T1 construct: gene PROM1
T1 sequence (O43490 20-865): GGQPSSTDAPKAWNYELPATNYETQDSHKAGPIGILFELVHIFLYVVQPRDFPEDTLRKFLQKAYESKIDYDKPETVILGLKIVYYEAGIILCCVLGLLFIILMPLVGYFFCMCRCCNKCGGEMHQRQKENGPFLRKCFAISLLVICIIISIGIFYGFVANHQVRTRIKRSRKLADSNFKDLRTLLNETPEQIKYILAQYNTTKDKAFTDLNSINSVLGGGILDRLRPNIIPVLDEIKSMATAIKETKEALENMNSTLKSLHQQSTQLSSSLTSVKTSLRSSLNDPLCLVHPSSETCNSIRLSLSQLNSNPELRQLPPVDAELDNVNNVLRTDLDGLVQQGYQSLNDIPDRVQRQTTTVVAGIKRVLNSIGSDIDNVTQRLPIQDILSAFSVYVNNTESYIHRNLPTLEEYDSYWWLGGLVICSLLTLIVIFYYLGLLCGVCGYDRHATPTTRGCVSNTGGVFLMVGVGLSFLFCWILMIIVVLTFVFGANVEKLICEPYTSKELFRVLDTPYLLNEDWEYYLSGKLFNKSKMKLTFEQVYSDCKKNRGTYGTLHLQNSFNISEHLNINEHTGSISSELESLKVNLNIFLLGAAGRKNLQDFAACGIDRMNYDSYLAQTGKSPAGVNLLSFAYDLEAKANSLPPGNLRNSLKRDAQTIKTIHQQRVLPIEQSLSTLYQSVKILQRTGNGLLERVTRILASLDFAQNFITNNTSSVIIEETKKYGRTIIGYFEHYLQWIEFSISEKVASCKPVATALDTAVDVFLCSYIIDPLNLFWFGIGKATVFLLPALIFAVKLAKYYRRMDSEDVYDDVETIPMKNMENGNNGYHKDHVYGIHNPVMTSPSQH
Experiment: surface plasmon resonance (SPR), single-site fit, […] PA
Type: binding

`COc1ccc(C(=O)CCNC(C)=O)c(N)c1` [PA, pegaharoline A] was tested, and the Kd was 7.25 µM.
